Experimental findings from patent US11242337B2, “Compounds useful for treating gastrointestinal tract disorders” (Ardelyx, Inc., priority 2017, dated 2022) are described below.

Read-outs that look alike come from different tables or passages of the source.

Experiment [1] has as its target T1, NHE3 (Homo sapiens, UniProt P48764).
T1 construct: expressed in transfected cells
T1 sequence (P48764 26-834): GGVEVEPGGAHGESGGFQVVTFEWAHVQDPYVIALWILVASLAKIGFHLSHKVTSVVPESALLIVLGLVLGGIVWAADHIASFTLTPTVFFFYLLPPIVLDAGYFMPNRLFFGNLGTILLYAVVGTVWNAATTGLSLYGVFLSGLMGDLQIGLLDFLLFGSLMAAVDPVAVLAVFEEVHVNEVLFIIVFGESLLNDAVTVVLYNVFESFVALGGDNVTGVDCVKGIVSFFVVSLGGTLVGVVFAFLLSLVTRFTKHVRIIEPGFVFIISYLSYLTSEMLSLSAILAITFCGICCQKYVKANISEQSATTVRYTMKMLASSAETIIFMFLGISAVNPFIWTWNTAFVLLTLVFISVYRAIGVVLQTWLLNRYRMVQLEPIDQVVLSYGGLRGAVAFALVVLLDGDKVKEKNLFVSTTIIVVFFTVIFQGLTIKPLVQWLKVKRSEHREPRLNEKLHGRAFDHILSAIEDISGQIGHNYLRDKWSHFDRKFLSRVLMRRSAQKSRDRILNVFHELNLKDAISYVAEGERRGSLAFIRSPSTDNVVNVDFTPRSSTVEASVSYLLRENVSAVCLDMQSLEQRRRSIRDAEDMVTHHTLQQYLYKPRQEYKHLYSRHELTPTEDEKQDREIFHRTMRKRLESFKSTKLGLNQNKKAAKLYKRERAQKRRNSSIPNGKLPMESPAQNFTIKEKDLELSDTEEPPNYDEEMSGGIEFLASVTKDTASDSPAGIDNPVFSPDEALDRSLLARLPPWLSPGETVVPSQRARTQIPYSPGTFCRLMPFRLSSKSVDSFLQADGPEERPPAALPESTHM
T1 sequence (Q99653 2-195 partner limits assumed): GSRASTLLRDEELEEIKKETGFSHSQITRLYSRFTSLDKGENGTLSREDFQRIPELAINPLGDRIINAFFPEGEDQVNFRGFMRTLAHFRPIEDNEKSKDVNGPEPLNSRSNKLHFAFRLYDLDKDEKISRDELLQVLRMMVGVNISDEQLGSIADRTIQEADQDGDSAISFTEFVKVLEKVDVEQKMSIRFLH
As to the kind of experiment: persistent inhibition of NHE3 in the cell-based assay of example 181 (4-chloro vs 4-cyano pairs). On the procedure: The following pairs of compounds differ only in the 4-position substituent (either chloro (X—Cl) or cyano (X—CN)):
The ability of compounds to inhibit human and rat NHE-3-mediated Na^+ dependent H^+ antiport after application and washout was measured using a modification of the pH sensitive dye method described above. PS120 fibroblasts stably expressing human NHE3 and NHERF2 were obtained from Mark Donowitz (Baltimore, Md.). Opossum kidney (OK) cells were obtained from the ATCC and propagated per their instructions. The rat NHE-3 gene was introduced into OK cells via electroporation, and cells were seeded into 96 well plates and grown overnight. Medium was aspirated from the wells, cells were washed once with NaCl-HEPES buffer (100 mM NaCl, 50 mM HEPES, 10 mM glucose, 5 mM KCl, 2 mM CaCl2, 1 mM MgCl2, pH 7.4), then overlayed with NaCl-HEPES buffer containing 0-30 μM test compound. After a 60 min incubation at room temperature, the test drug containing buffer was aspirated from the cells. Following aspiration, cells were washed once with NaCl-HEPES buffer without drug, then incubated for 30 min at 37° C. with NH4Cl-HEPES buffer (20 mM NH4Cl, 80 mM NaCl, 50 mM HEPES, 5 mM KCl, 2 mM CaCl2, 1 mM MgCl2, pH 7.4) containing 5 μM BCECF-AM. Cells were washed once with Ammonium free, Na^+-free HEPES (100 mM choline, 50 mM HEPES, 10 mM glucose, 5 mM KCl, 2 mM CaCl2, 1 mM MgCl2, pH 7.4) and incubated in the same buffer for 10 minutes at room temperature to lower intracellular pH. NHE-3-mediated recovery of neutral intracellular pH was initiated (10 min after compound washout) by addition of Na-HEPES buffer. […] Changes in intracellular pH were monitored using a FLIPR Tetra® (Molecular Devices, Sunnyvale, Calif.) by excitation at λex 439 to 505 nm, and measuring BCECF fluorescence at λem 538 nm. The initial rate of the fluorescence ratio change was used as a measure of NHE-mediated Na^+/H^+ activity, and reported as the change in fluorescence ratio per minute.

Experiment [2] deals with T1, NHE3. As to the kind of experiment: Cell-based assay of NHE-3 activity (pre-incubation inhibition), human. Conditions: human Preincubation. The method in brief: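 Activity read as initial rate of BCECF fluorescence ratio change per minute (ex 439/505, em 538 nm) following NH4Cl prepulse acid loading. Compound (0–30 μM) present during 10 min Na+-free acidification at room temperature; cells were PS120 fibroblasts stably co-expressing human NHE3 and NHERF2.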

Experiment [3] relates to absorption of sodium from the intestinal lumen. As to the kind of experiment: Inhibition of intestinal sodium absorption in mice. The experiment is classed as in vivo. To be noted: CD-1 mice, 15 mg/kg oral gavage twice daily; for response vs control in vivo at 15 mg/kg: Mus musculus, 72 h, day 3, normalized to dietary sodium intake. On the procedure: Urinary and fecal sodium excretions were measured to assess the ability of selected example compounds to inhibit the absorption of sodium from the intestinal lumen. In addition, an assessment of the absence or presence of diarrhea in response to compound treatment was made. Approximately eight-week old, male, CD-1 mice were purchased from Envigo (Livermore, Calif.), were housed 6 per cage and acclimated for at least 48 hours before study initiation. Animals were fed Harlan Teklad Global TD.160470 rodent chow (Madison, Wis.), standard laboratory rodent chow Harlan Teklad Global 2018 with the addition of 0.4% inorganic phosphorous. […] To initiate the study, mice were weighed and then individually placed in metabolic cages. Following a 3-day acclimation period to the metabolic cage, a 24-hr baseline collection of urine and feces was performed. […] Each day, measurements of body weight. 24-hour food intake, water intake, urine volume and wet fecal weight were recorded, along with any observation of diarrhea. Fecal samples were dried using a lyophilizer for at least 3 days, following which dry weight was recorded and fecal fluid content was calculated based on the difference between the wet and dry stool weights. Fecal fluid content on day 3 of compound treatment was calculated as a change from the vehicle group mean. For urine samples, the volumes were determined gravimetrically. Feces and urine were analyzed for sodium content by microwave plasma-atomic emission spectroscopy or ion chromatography, respectively. Urine samples were analyzed on an ion chromatography system (Thermo Fisher ICS-3000 or ICS-5000+) coupled with conductivity detectors. Chromatographic separation of cations was performed using an IonPac CS12A (Thermo Fisher) 2×250 mm analytical column with an isocratic elution using […] methanesulfonic acid. Concentrations were interpolated from a a standard curve (prepared in 10 mM HCl) for sodium ion based on retention time and peak area. Fecal sample analysis by Microwave Plasma Atomic Emission Spectrometry (MP-AES). Dry fecal samples were ground into a fine powder on a homogenizer and the ground samples (400-600 mg aliquots weighed) were digested with nitric acid by microwave method (Mars 6). These digested samples were diluted with 1% Nitric acid and analyzed on Agilent 4100 MP-AES. Concentrations were calculated relative to a standard curve (prepared in 1% Nitric acid) for sodium based on the signal intensity. Sodium was detected at a wavelength of 588.995 nm. Twenty-four-hour urinary sodium excretion (ma/24-hours) was calculated by multiplying urinary sodium concentration by 24-hour urine volume. Twenty-four-hour fecal sodium excretion (mg/24-hours) was calculated by multiplying fecal sodium concentration by 24-hour dry fecal weight. The urinary and fecal sodium excretion on day 3 of compound treatment were normalized to dietary sodium intake and expressed as a percentage of the vehicle mean.

Experiment [4] deals with T1, NHE3. As to the kind of experiment: Cell-based assay of NHE-3 activity (persistent inhibition), human. Conditions: human Persistence, 60 min incubation then washout. The method in brief: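 Persistent inhibition: compound (0-30 μM, 60 min, RT, NaCl-HEPES pH 7.4) removed before assay. Human NHE3/NHERF2 PS120 cells were then BCECF-loaded during NH4Cl pulse (30 min, 37 °C), acidified in Na+-free buffer, and Na+ added 10 min after washout; antiport measured as initial fluorescence-ratio change per minute.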

Regarding `N#Cc1cc(Cl)cc2c1C[C@H](N1CCNCC1)[C@H]2Oc1ccc(S(=O)(=O)N[C@H]2CCN(CCOCCNC(=O)NCCCCNC(=O)NCCOCCN3CC[C@H](NS(=O)(=O)c4ccc(O[C@H]5c6cc(Cl)cc(C#N)c6C[C@@H]5N5CCNCC5)c(F)c4)C3)C2)cc1F` [C-CN, 3-(2-{2-[(3 S)-3-(4-{[(1S,2S)-6-chloro-4-cyano-2-(piperazin-1-yl)-2,3-dihydro-1H-inden-1-yl]oxy}-3-fluorobenzenesulfonamido)pyrrolidin-1-yl]ethoxy}ethyl)-1-(4-{[(2-{2-[(3S)-3-(4-{[(1S,2S)-6-chloro-4-cyano-2-(piperazin-1-yl)-2,3-dihydro-1H-inden-1-yl]oxy}-3-fluorobenzenesulfonamido)pyrrolidin-1-yl]ethoxy}ethyl)carbamoyl]amino}butyl)urea], in experiment [1] (cell-based assay of example 181, after washout, read-out: pIC50 (persistent) (converted)), the IC50 was 0.501 nM. Further, the “Percent Inhibition” value in experiment [1] (cell-based assay of example 181, persistent) is on record as 106%.
`CN(C)[C@@H]1CCCN([C@H]2Cc3c(Cl)cc(Cl)cc3[C@@H]2Oc2ccc(S(=O)(=O)NCCOCCOCCNC(=O)NCCCCNC(=O)NCCOCCOCCNS(=O)(=O)c3ccc(O[C@H]4c5cc(Cl)cc(Cl)c5C[C@@H]4N4CCC[C@@H](N(C)C)C4)c(F)c3)cc2F)C1` [Example 27, 3-[2-(2-[2-[(4-[[(1S,2S)-4,6-Dichloro-2-[(3R)-3-(dimethylamino)piperidin-1-yl]-2,3-dihydro-1H-inden-1-yl]oxy]-3-fluorobenzene)sulfonamido]ethoxy]ethoxy)ethyl]-1-[4-([[2-(2-[2-[(4-[[(1S,2S)-4,6-dichloro-2-[(3R)-3-(dimethylamino)piperidin-1-yl]-2,3-dihydro-1H-inden-1-yl]oxy]-3-fluorobenzene)sulfonamido]ethoxy]ethoxy)ethyl]carbamoyl]amino)butyl]urea; bis(trifluoroacetic acid)]: the “% inhibition” value in experiment [2] and in experiment [4] was “C (>70%)” in each case. In experiment [3] (day 3, change from vehicle group mean), the “Fecal fluid content (Δ from vehicle)” value is “C (>10)”. In addition, the response vs control in vivo at 15 mg/kg in experiment [3] (read-out: Fecal Na Excretion (% of vehicle)) is greater than 200%; in experiment [3] (read-out: Urinary Na Excretion (% of vehicle)), 50 to 70%.
Turning to `Cc1cc(S(=O)(=O)N[C@H]2CCN(CCOCCNC(=O)NCCCCNC(=O)NCCOCCN3CC[C@H](NS(=O)(=O)c4ccc(O[C@H]5c6cc(Cl)cc(C#N)c6C[C@@H]5N(C)C)c(C)c4)C3=O)C2=O)ccc1O[C@H]1c2cc(Cl)cc(C#N)c2C[C@@H]1N(C)C` [Example 92, 1-(2-[2-[(3S)-3-[(4-[[(1S,2S)-6-Chloro-4-cyano-2-(dimethylamino)-2,3-dihydro-1H-inden-1-yl]oxy]-3-methylbenzene)sulfonamido]-2-oxopyrrolidin-1-yl]ethoxy]ethyl)-3-(4-[[(2-[2-[(3S)-3-[(4-[[(1S,2S)-6-chloro-4-cyano-2-(dimethylamino)-2,3-dihydro-1H-inden-1-yl]oxy]-3-methylbenzene)sulfonamido]-2-oxopyrrolidin-1-yl]ethoxy]ethyl)carbamoyl]amino]butyl)urea; bis(trifluoroacetic acid)], the “% inhibition” value in experiment [2] and in experiment [4] was “C (>70%)” in each case. The pIC50 entry in experiment [2] (0-30 μM test compound) and in experiment [4] was “C (NHE3 pIC50 > 7)” throughout.
In the case of `Cc1cc(S(=O)(=O)N2CC[C@H](COCCOCCNC(=O)NCCCCNC(=O)NCCOCCOC[C@H]3CCN(S(=O)(=O)c4ccc(O[C@H]5c6cc(Cl)cc(C#N)c6C[C@@H]5N(C)C)c(C)c4)C3)C2)ccc1O[C@H]1c2cc(Cl)cc(C#N)c2C[C@@H]1N(C)C` [Example 46, 3-[2-(2-[[(3S)-1-[(4-[[(1S,2S)-6-Chloro-4-cyano-2-(dimethylamino)-2,3-dihydro-1H-inden-1-yl]oxy]-3-methylbenzene)sulfonyl]pyrrolidin-3-yl]methoxy]ethoxy)ethyl]-1-[4-([[2-(2-[[(3S)-1-[(4-[[(1S,2S)-6-chloro-4-cyano-2-(dimethylamino)-2,3-dihydro-1H-inden-1-yl]oxy]-3-methylbenzene)sulfonyl]pyrrolidin-3-yl]methoxy]ethoxy)ethyl]carbamoyl]amino)butyl]urea; bis(trifluoroacetic acid)], the “% inhibition” value in experiment [2] and in experiment [4] was “C (>70%)” throughout. Also, the IC50 in experiment [2] (0-30 μM test compound) and in experiment [4] was less than 100 nM throughout.
